# Experimental data as given in patent US20140105959A1, “METHOD AND DEVICE FOR REDUCING DERMAL FILLER ADVERSE EVENTS” (ALLERGAN, INC., priority 2012, published 2014).
# How the values were obtained:
# hairless rat skin [1] = experiment: bruising after dermal filler administration at patch-treated versus untreated rat skin; assay type: in vivo; conditions: cotton fabric patch, phenylephrine 400 ppm, 15 minutes, then dermal filler, compared with adjacent untreated skin
# hairless rat skin [2] = experiment: vasoconstriction in hairless rat skin after topical phenylephrine patch; assay type: in vivo
# Text: In certain embodiments, mechanisms are provided that are effective to actively enhance transport of vasoactive drugs across the skin (mechanisms will be referred to as “enhancers” in the rest of the invention). For example, in one embodiment of the invention, the method includes the step of treating a skin site selected for dermal filler administration with a mechanism effective to enhance drug delivery across the skin prior to treating the skin site with the device or compound containing the active agent effective to reduce or ameliorate the adverse event. For example, the mechanism, hereinafter sometimes referred to as “mechanical enhancer” may comprise a mechanical device capable of gently stripping of the superficial skin layers from the epidermis. For example, the mechanism may be an adhesive tape or abrasive surface. It has been discovered that use of such mechanisms increase phenylephrine diffusion through the skin and result in significant reduction in skin's vasoconstriction time (e.g. 5 minutes) by phenylephrine using the same patch device. In certain embodiments, it might be useful to apply the mechanism, enhancement device, after filler administration, preferably in devices where the vasoactive drug may interfere with safety and/or potency of fillers. […]
# nasolabial folds = experiment: visible bruising after Juvederm XC injection into patch-treated nasolabial folds of a patient; assay type: in vivo, human; conditions: microneedle roller pretreatment, cotton-based patch about 300 ppm phenylephrine for about 7 minutes, then 0.6 cc Juvederm XC per nasolabial fold
# Protocol: Their physician applies, along both nasolabial folds, a tool having a rolling head with numerous microneedles to penetrate the dermis with numerous punctures about one millimeter in depth. They then apply a phenylephrine-containing cotton-based patch, formulated to about 300 ppm phenylephrine, in accordance with the invention, on the skin along the left nasolabial fold, in a way that covers the entire injection site. The patch is left in place for about 7 minutes. The physician removes the patch and then carefully injects 0.6 cc of a HA-based dermal filler, specifically, Juvederm® XC, (available from Allergan, Inc., Irvine, Calif.) into the phenylephrine-treated dermis just beneath the fold line, using a 27 gauge needle. The treatment procedure is repeated for the right nasolabial fold, for example, using another identical patch and another 0.6 cc Juvederm® XC.
compound,measurement,setting,value
CNC[C@H](O)c1cccc(O)c1 [phenylephrine],"bruising at the vasoconstricted skin site, particularly along the line of injection",hairless rat skin [1],lower than at the untreated skin site
same,vasoconstriction in skin regions directly underneath the patch,"hairless rat skin [2]; cotton fabric patch, phenylephrine 400 ppm, removed after 15 minutes, hairless rat",significant vasoconstriction
same,"time to release, diffuse and cause significant vasoconstriction","hairless rat skin [2]; phenylephrine formulated at 100 ppm in a topically placed cotton gauze, hairless rat skin",about 10 minutes
same,skin's vasoconstriction time,"hairless rat skin [2]; same patch device, after mechanical enhancer (adhesive tape or abrasive surface stripping superficial skin layers)",5 min
same,bruising one week after the procedure,nasolabial folds; one week,"no bruising, nor red marks"
same,visible bruising three days after the treatment procedure,nasolabial folds; three days,does not notice any visible bruising
